Columns and labels:
human NEP = molecular target: T1, human NEP (Homo sapiens, UniProt P08473); experiment: In vitro enzyme inhibition assay, inhibitor potency at human NEP; format: biochemical; settings: recombinant human NEP, fluorogenic peptide substrate 10 μM, 37° C.; values given as ranges
T1 construct: purchased R&D Systems, Minneapolis, Minn; 1182-ZN
Procedure: The inhibitory activities of compounds at human and rat neprilysin (EC 3.4.24.11; NEP) and human angiotensin converting enzyme (ACE) were determined using in vitro assays as described below.
Recombinant human NEP and recombinant human ACE were obtained commercially (R&D Systems, Minneapolis, Minn., catalog numbers 1182-ZN and 929-ZN, respectively). The fluorogenic peptide substrate Mca-D-Arg-Arg-Leu-Dap-(Dnp)-OH (Medeiros et al. (1997) Braz. J. Med. Biol. Res. 30:1157-62; Anaspec, San Jose, Calif.) and Abz-Phe-Arg-Lys(Dnp)-Pro-OH (Araujo et al. (2000) Biochemistry 39:8519-8525; Bachem, Torrance, Calif.) were used in the NEP and ACE assays respectively.
The assays were performed in 384-well white opaque plates at 37° C. using the fluorogenic peptide substrates at a concentration of 10 μM in Assay Buffer (NEP: 50 mM HEPES, pH 7.5, 100 mM NaCl, 0.01% polyethylene glycol sorbitan monolaurate (Tween-20), 10 μM ZnSO4; ACE: 50 mM HEPES, pH 7.5, 100 mM NaCl, 0.01% Tween-20, 1 μM ZnSO4).
Test compounds were assayed over the range of concentrations from 10 μM to 20 pM. Test compounds were added to the enzymes and incubated for 30 minute at 37° C. prior to initiating the reaction by the addition of substrate. Reactions were terminated after 20 minutes of incubation at 37° C. by the addition of glacial acetic acid to a final concentration of 3.6% (v/v).
Plates were read on a fluorometer with excitation and emission wavelengths set to 320 nm and 405 nm, respectively. Inhibition constants were obtained by nonlinear regression of the data using the equation (GraphPad Software, Inc., San Diego, Calif.): v=v0/[1+(I/K′)] where v is the reaction rate, v0 is the uninhibited reaction rate, I is the inhibitor concentration and K′ is the apparent inhibition constant.
Compounds of the invention were tested in this assay and found to have pKi values at human NEP as follows.

[1] = Rat PO cassette assay (oral bioavailability); format: in vivo; settings: plasma, male Sprague-Dawley rats, single oral gavage vs intravenous dose, 0.5 mg/kg, read-out: % F (oral bioavailability)
From the text: Oral bioavailability, or % F, is a measure of the percentage of a drug in an oral dose that actually reaches the systemic circulation. Compound losses can occur due to incomplete formulation dissolution, incomplete absorption due to compound insolubility or instability along the GI, or metabolism in the gut or across the gut wall. The fraction of the dose which reaches the hepatic portal vein must also then pass through the liver before reaching the systemic circulation. Compound metabolism, or “first-pass extraction,” can occur during this initial passage through the liver, and this is an additional potential source of compound loss. Oral bioavailability is calculated as the dose-normalized ratio of drug exposure after an oral dose to that after an intravenous dose, wherein the entire dose is delivered directly to the systemic circulation.
Each cassette study begins with 10 mM DMSO stock solutions of up to 5 different compounds. Typically, compounds are selected such no two compounds dosed in the same cassette have a molecular weight within 5 Da of each other. This simplifies subsequent bioanalysis. Appropriate volumes of each DMSO stock are added into a volume of vehicle (5% sodium bicarbonate, 5% dextrose in H2O) such that the final concentration of each compound is 0.25 mg/mL. Intravenous dosing solutions are sterile-filtered (0.2 μm) prior to dosing.
Pre-cannulated male Sprague-Dawley rats (3 per cassette per route) between 8 and 10 weeks of age were obtained from Harlan Laboratories (Indianapolis, Ind.). Rats received either a single oral gavage or a single intravenous (via lateral tail vein) dose (2 mL/kg) of the dosing solution. The final dose was 0.5 mg/kg. Serial blood samples were harvested via jugular vein cannula at 3 minutes, 15 minutes, 30 minutes, 1 hours, 2 hours, 4 hours, 6 hours, and 24 hours post-dose. Sampling was performed either manually or using automated blood samplers. Samples were collected into microtainer tubes containing EDTA as the anticoagulant and are processed to plasma by refrigerated centrifugation.
Plasma samples were extracted with 3 volumes of MeCN containing a suitable internal standard. Extracts were reconstituted into 3 volumes of water containing 1% formic acid, and analyzed via HPLC-coupled MS/MS. Plasma concentration-time data were analyzed using the Phoenix software (Pharsight Corp., St. Louis, Mo.) to calculate pharmacokinetic parameters.
Compounds of the invention of particular interest were those having a % F>10%, when tested in this assay.

T1 sequence (P08473 52-750 limits assumed): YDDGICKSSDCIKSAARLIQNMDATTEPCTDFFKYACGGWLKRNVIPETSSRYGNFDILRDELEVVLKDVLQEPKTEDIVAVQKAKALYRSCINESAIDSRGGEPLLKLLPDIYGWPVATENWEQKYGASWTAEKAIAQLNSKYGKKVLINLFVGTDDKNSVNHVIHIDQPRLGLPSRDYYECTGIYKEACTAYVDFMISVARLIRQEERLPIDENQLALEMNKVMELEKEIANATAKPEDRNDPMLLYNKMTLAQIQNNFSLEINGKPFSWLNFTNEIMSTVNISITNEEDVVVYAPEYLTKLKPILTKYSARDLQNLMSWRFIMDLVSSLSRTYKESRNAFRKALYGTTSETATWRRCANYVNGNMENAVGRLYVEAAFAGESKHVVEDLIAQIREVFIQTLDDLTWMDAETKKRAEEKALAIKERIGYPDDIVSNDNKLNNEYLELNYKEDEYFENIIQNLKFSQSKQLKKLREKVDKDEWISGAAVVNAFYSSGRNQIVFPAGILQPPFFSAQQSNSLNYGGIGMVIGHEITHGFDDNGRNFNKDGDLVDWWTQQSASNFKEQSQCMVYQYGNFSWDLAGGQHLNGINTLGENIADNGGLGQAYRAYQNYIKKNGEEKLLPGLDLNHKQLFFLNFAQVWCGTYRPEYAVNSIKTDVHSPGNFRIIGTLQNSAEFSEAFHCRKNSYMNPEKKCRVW

In the case of CCC(CO)(C[C@@H](Cc1ccc(-c2cc(Cl)ccc2F)cc1)NC(=O)c1cnn[nH]1)C(=O)O (single isomer, unassigned) [Example 14a], the Ki (human NEP) is reported as ≤ 1 nM and the bioavailability [1] is reported as > 10%.
In the case of CCCC(CO)(C[C@@H](Cc1ccc(-c2cc(Cl)ccc2F)cc1)NC(=O)c1cnn[nH]1)C(=O)O (single isomer, unassigned) [Example 15a], the Ki (human NEP) is reported as ≤ 1 nM and the bioavailability [1] is reported as > 10%.
With O=C(N[C@H](Cc1ccc(-c2cc(Cl)ccc2F)cc1)CC1(C(=O)O)CCOC1)c1cnn[nH]1 (single isomer, unassigned) [Example 20a] the Ki (human NEP) was ≤ 1 nM and the bioavailability [1] was > 10%.
With CCOC[C@](C)(C[C@@H](Cc1ccc(-c2cccc(Cl)c2)cc1)NC(=O)c1noc(=O)[nH]1)C(=O)O [Example 9, (2S,4R)-5-(3′-Chlorobiphenyl-4-yl)-2-ethoxymethyl-2-methyl-4-[(5-oxo-4,5-dihydro-[1,2,4]oxadiazole-3-carbonyl)amino]pentanoic Acid] the Ki (human NEP) was ≤ 1 nM and the bioavailability [1] was > 10%.
A Ki (human NEP) of 1.26 to 3.16 nM was found for CCOC[C@](C)(C[C@@H](Cc1ccc(-c2cc(Cl)ccc2F)cc1)NC(=O)c1ncco1)C(=O)O [Example 11-1, (2S,4R)-5-(5′-Chloro-2′-fluorobiphenyl-4-yl)-2-ethoxymethyl-2-methyl-4-[(oxazole-2-carbonyl)amino]pentanoic acid] in this work.
With CCOC[C@](C)(C[C@@H](Cc1ccc(-c2cc(Cl)ccc2F)cc1)NC(=O)c1ccc(Cl)cn1)C(=O)O [Example 11-2, (2S,4R)-5-(5′-Chloro-2′-fluorobiphenyl-4-yl)-4-[(5-chloropyridine-2-carbonyl)amino]-2-ethoxymethyl-2-methylpentanoic acid] the Ki (human NEP) was ≤ 1 nM.
A Ki (human NEP) of 1.26 to 3.16 nM was found for CCOC[C@](C)(C[C@@H](Cc1ccc(-c2cc(Cl)ccc2F)cc1)NC(=O)c1ncccn1)C(=O)O [Example 11-3, (2S,4R)-5-(5′-Chloro-2′-fluorobiphenyl-4-yl)-2-ethoxymethyl-2-methyl-4-[(pyrimidine-2-carbonyl)amino]pentanoic acid] in this work.
With CCOC[C@](C)(C[C@@H](Cc1ccc(-c2cc(Cl)ccc2F)cc1)NC(=O)c1n[nH]nc1C)C(=O)O [Example 11-4, (2S,4R)-5-(5′-Chloro-2′-fluorobiphenyl-4-yl)-2-ethoxymethyl-2-methyl-4-[(5-methyl-2H-[1,2,3]triazole-4-carbonyl)amino]pentanoic acid] the Ki (human NEP) was 1.26 to 3.16 nM and the bioavailability [1] was > 10%.
A Ki (human NEP) of 1.26 to 3.16 nM was found for NCCC(CO)(C[C@@H](Cc1ccc(-c2cc(Cl)ccc2F)cc1)NC(=O)c1cnn[nH]1)C(=O)O (stereo partly drawn) [Example 17, (R)-2-(2-Amino-ethyl)-5-(5′-chloro-2′-fluorobiphenyl-4-yl)-2-hydroxymethyl-4-[(3H-[1,2,3]triazole-4-carbonyl)amino]pentanoic Acid] in this work.
For CC(=O)NCCC(CO)(C[C@@H](Cc1ccc(-c2cc(Cl)ccc2F)cc1)NC(=O)c1cnn[nH]1)C(=O)O (stereo partly drawn) [Example 18, (R)-2-(2-Acetylaminoethyl)-5-(5′-chloro-2′-fluorobiphenyl-4-yl)-2-hydroxymethyl-4-[(3H-[1,2,3]triazole-4-carbonyl)amino]pentanoic Acid], the Ki (human NEP) was ≤ 1 nM.
